Results on twelve compounds are retold here after patent publication US7691382B2, “Antiviral polypeptides comprising tandem repeats of APOE 141-149 and variants thereof” (priority 2003, dated 2010).

Peptide text beside a SMILES is read from it.

The assay relates to HSV1. It is filed as cell-based, Human herpes simplex virus type 1. The following applies: for efficacy for reducing HSV1 infectivity (in words): Examples 2 and 3. The method, then: African Green Monkey Kidney (Vero) cells were maintained in Eagle's minimum essential medium with Earle's salt (EMEM) and supplemented with 10% foetal calf serum (heat-inactivated), 4 mM L-glutamine, and 1% (v/v) nonessential amino acids, plus penicillin and streptomycin (100 IU/mg and […], respectively) (maintenance medium referred to as 10% EMEM). The cells were incubated at 37° C. in a humidified atmosphere of air with 5% CO2.
On harvesting, monolayers were washed in phosphate-buffered saline (PBS), and dislodged by incubating with trypsin in PBS for 30 min, before inactivating trypsin by addition of an equal volume of 10% EMEM and centrifuging at 500 g (5 min, 4° C.). Cell pellets were resuspended in 10% EMEM, prior to cell counting and seeding of 24-well plates. For antiviral assays, medium containing only 0.5% FCS was used (referred to as 0.5% EMEM).
Three separate passages of HSV1 virus were prepared by infecting Vero cells, and preparing semi-pure suspensions of virus from tissue culture supernatant and cell lysates, before freezing aliquots of virus at −85° C. Viral infectivity was assessed by carrying out plaque assays on serial dilutions of thawed aliquots (expressed in pfu/ml).
Peptides were obtained in lyophilised form from a commercial supplier (AltaBioscience, University of Birmingham or Advanced Biomedical), and were produced at 5 micromole scale. N-terminals were protected by addition of an acetyl group, and the C-terminals were protected by addition of an amide group.
Small quantities of peptide were weighed in sterile Eppendorf tubes, before addition of sufficient 0.5% EMEM to produce a 1.5 mM stock solution, which was frozen at −20° C. in aliquots.
Vero cells were seeded at 125,000 cells per well in 10% EMEM, and were incubated overnight resulting in confluent monolayers. […] Virus stocks (p3) were thawed, and diluted in 0.5% EMEM such that there were around 100 pfu in 100 μl. Each 24-well plate was inoculated separately. Firstly 100 μl of virus stock was added to the peptide or control medium arranged on a 96-well plate. This was incubated at 37° C. for ten minutes before inoculation. Medium was removed from four wells of a 24-well plate containing confluent Vero, and the 200 μl inoculum added to the appropriate well. Once all wells were treated, the 24-well plate was incubated for a further 60-80 minutes. Finally the peptide-containing inoculum was removed, and 1 ml of 1% EMEM containing 1% carboxymethylcellulose was added to each well. Plates were incubated for a further 22 hours or in some experiments 40 hours, before removal of overlay, and addition of 10% formaldehyde in PBS. After a further one hour incubation, fixative was removed, monolayers washed several times with tap water, and stained with carbol fuchsin solubilised in water. After 30 minutes stain was removed, and plates washed several times with tap water, before being air dried. Plaques were counted using an Olympus IX70 Inverting Microscope, and antiviral effect expressed as a percentage of the control value for each peptide concentration. The IC50 was calculated from plots of inhibitory effect against peptide concentration.

On to ARKARKRAAARKARKRAA [GIN 39], for which the “efficacy for reducing HSV1 infectivity (in words)” value was “abolished antiviral activity”.

As usually defined, the IC50 is the midpoint of a concentration-inhibition curve. Read a low IC50 as inhibition by little substance. In turn, `CC(=O)N[C@@H](Cc1c[nH]c2ccccc12)C(=O)N[C@@H](CCCNC(=N)N)C(=O)N[C@@H](CCCCN)C(=O)N[C@@H](Cc1c[nH]c2ccccc12)C(=O)N[C@@H](CCCNC(=N)N)C(=O)N[C@@H](CCCCN)C(=O)N[C@@H](CCCNC(=N)N)C(=O)N[C@@H](Cc1c[nH]c2ccccc12)C(=O)N[C@@H](Cc1c[nH]c2ccccc12)C(=O)N[C@@H](Cc1ccccc1)C(=O)N[C@@H](CCCNC(=N)N)C(=O)N[C@@H](CCCCN)C(=O)N[C@@H](Cc1c[nH]c2ccccc12)C(=O)N[C@@H](CCCNC(=N)N)C(=O)N[C@@H](CCCCN)C(=O)N[C@@H](CCCNC(=N)N)C(=O)N[C@@H](Cc1c[nH]c2ccccc12)C(=O)N[C@@H](Cc1c[nH]c2ccccc12)C(N)=O` [MU 60] (Ac-WRKWRKRWWFRKWRKRWW-NH2) came in with an IC50 of 4 µM.

As for `CC(=O)N[C@@H](CC(C)C)C(=O)N[C@@H](CCCNC(=N)N)C(=O)N[C@@H](CCCNC(=N)N)C(=O)N[C@@H](CC(C)C)C(=O)N[C@@H](CCCNC(=N)N)C(=O)N[C@@H](CCCNC(=N)N)C(=O)N[C@@H](CCCNC(=N)N)C(=O)N[C@@H](CC(C)C)C(=O)N[C@@H](CC(C)C)C(=O)N[C@@H](CC(C)C)C(=O)N[C@@H](CCCNC(=N)N)C(=O)N[C@@H](CCCNC(=N)N)C(=O)N[C@@H](CC(C)C)C(=O)N[C@@H](CCCNC(=N)N)C(=O)N[C@@H](CCCNC(=N)N)C(=O)N[C@@H](CCCNC(=N)N)C(=O)N[C@@H](CC(C)C)C(=O)N[C@@H](CC(C)C)C(N)=O` [MU 38] (Ac-LRRLRRRLLLRRLRRRLL-NH2), the IC50 was greater than 30 µM.

In turn, `CC(=O)N[C@@H](CCCNC(=N)N)C(=O)N[C@@H](CCCNC(=N)N)C(=O)N[C@@H](CCCCN)C(=O)N[C@@H](CCCNC(=N)N)C(=O)N[C@@H](CCCNC(=N)N)C(=O)N[C@@H](CCCCN)C(=O)N[C@@H](CCCNC(=N)N)C(=O)N[C@@H](CCCNC(=N)N)C(=O)N[C@@H](CCCNC(=N)N)C(=O)N[C@@H](CCCNC(=N)N)C(=O)N[C@@H](CCCNC(=N)N)C(=O)N[C@@H](CCCCN)C(=O)N[C@@H](CCCNC(=N)N)C(=O)N[C@@H](CCCNC(=N)N)C(=O)N[C@@H](CCCCN)C(=O)N[C@@H](CCCNC(=N)N)C(=O)N[C@@H](CCCNC(=N)N)C(=O)N[C@@H](CCCNC(=N)N)C(N)=O` [MU 16] (Ac-RRKRRKRRRRRKRRKRRR-NH2) yielded an IC50 of 7.5 µM. This lies in the single-digit micromolar range.

For `CC(=O)N[C@@H](Cc1ccccc1)C(=O)N[C@@H](CCCNC(=N)N)C(=O)N[C@@H](CCCCN)C(=O)N[C@@H](Cc1ccccc1)C(=O)N[C@@H](CCCNC(=N)N)C(=O)N[C@@H](CCCCN)C(=O)N[C@@H](CCCNC(=N)N)C(=O)N[C@@H](Cc1ccccc1)C(=O)N[C@@H](Cc1ccccc1)C(=O)N[C@@H](Cc1ccccc1)C(=O)N[C@@H](CCCNC(=N)N)C(=O)N[C@@H](CCCCN)C(=O)N[C@@H](Cc1ccccc1)C(=O)N[C@@H](CCCNC(=N)N)C(=O)N[C@@H](CCCCN)C(=O)N[C@@H](CCCNC(=N)N)C(=O)N[C@@H](Cc1ccccc1)C(=O)N[C@@H](Cc1ccccc1)C(N)=O` [MU 7] (Ac-FRKFRKRFFFRKFRKRFF-NH2), the IC50 was greater than 30 µM.

`CC(=O)N[C@@H](CC(C)C)C(=O)N[C@@H](CCCNC(=N)N)C(=O)N[C@@H](CCCCN)C(=O)N[C@@H](CCCNC(=N)N)C(=O)N[C@@H](CC(C)C)C(=O)N[C@@H](CC(C)C)C(=O)N[C@@H](CC(C)C)C(=O)N[C@@H](CCCNC(=N)N)C(=O)N[C@@H](CCCCN)C(=O)N[C@@H](CC(C)C)C(=O)N[C@@H](CCCNC(=N)N)C(=O)N[C@@H](CCCCN)C(=O)N[C@@H](CCCNC(=N)N)C(=O)N[C@@H](CC(C)C)C(=O)N[C@@H](CC(C)C)C(N)=O` [GIN 2] (Ac-LRKRLLLRKLRKRLL-NH2): the half-inhibitory concentration (IC50) was greater than 40 µM and the “efficacy for reducing HSV1 infectivity (in words)” value is listed as “no, or poor, efficacy”.

For `CC(=O)N[C@@H](CC(C)C)C(=O)N[C@@H](CCCNC(=N)N)C(=O)N[C@@H](CCCCN)C(=O)N[C@@H](CC(C)C)C(=O)N[C@@H](CCCNC(=N)N)C(=O)N[C@@H](CCCCN)C(=O)N[C@@H](CCCNC(=N)N)C(=O)N[C@@H](CC(C)C)C(=O)N[C@@H](CC(C)C)C(=O)N[C@@H](CC(C)C)C(=O)N[C@@H](CCCNC(=N)N)C(=O)N[C@@H](CCCCN)C(N)=O` [GIN 5] (Ac-LRKLRKRLLLRK-NH2), the IC50 was greater than 40 µM and the “efficacy for reducing HSV1 infectivity (in words)” value is “no, or poor, efficacy”.

As for `CC(=O)N[C@@H](CC(C)C)C(=O)N[C@@H](CCCNC(=N)N)C(=O)N[C@@H](CCCCN)C(=O)N[C@@H](CC(C)C)C(=O)N[C@@H](CCCNC(=N)N)C(=O)N[C@@H](CCCCN)C(=O)N[C@@H](CCCNC(=N)N)C(=O)N[C@@H](CC(C)C)C(=O)N[C@@H](CC(C)C)C(=O)N[C@@H](CC(C)C)C(=O)N[C@@H](CCCNC(=N)N)C(=O)N[C@@H](CCCCN)C(=O)N[C@@H](CC(C)C)C(=O)N[C@@H](CCCNC(=N)N)C(=O)N[C@@H](CCCCN)C(N)=O` [GIN 4] (Ac-LRKLRKRLLLRKLRK-NH2), it took 29.5 µM to reach half-maximal inhibition (IC50) and the “efficacy for reducing HSV1 infectivity (in words)” value is recorded as “no, or poor, efficacy”.

Take `CC(=O)N[C@@H](CC(C)C)C(=O)N[C@@H](CCCNC(=N)N)C(=O)N[C@@H](CCCCN)C(=O)N[C@@H](CC(C)C)C(=O)N[C@@H](CCCNC(=N)N)C(=O)N[C@@H](CCCCN)C(=O)N[C@@H](CCCNC(=N)N)C(=O)N[C@@H](CC(C)C)C(=O)N[C@@H](CC(C)C)C(=O)N[C@@H](CCCNC(=N)N)C(=O)N[C@@H](CC(=O)O)C(=O)N[C@@H](C)C(=O)N[C@@H](CC(=O)O)C(=O)N[C@@H](CC(=O)O)C(=O)N[C@@H](CC(C)C)C(=O)N[C@@H](CCC(N)=O)C(=O)N[C@@H](CCCCN)C(=O)N[C@@H](CCCNC(=N)N)C(=O)N[C@@H](CC(C)C)C(=O)N[C@@H](C)C(N)=O` [GIN 12, LRKLRKRLLR DADDLQKRLA] (Ac-LRKLRKRLLRDADDLQKRLA-NH2): the IC50 is greater than 40 µM and the “efficacy for reducing HSV1 infectivity (in words)” value is recorded as “no, or poor, efficacy”.

Compound `CC(=O)N[C@@H](CC(C)C)C(=O)N[C@@H](CC(C)C)C(=O)N[C@@H](CCCNC(=N)N)C(=O)N[C@@H](CCCCN)C(=O)N[C@@H](CCCNC(=N)N)C(=O)N[C@@H](CC(C)C)C(=O)N[C@@H](CCCCN)C(=O)N[C@@H](CCCNC(=N)N)C(=O)N[C@@H](CC(C)C)C(=O)N[C@@H](CC(C)C)C(=O)N[C@@H](CC(C)C)C(=O)N[C@@H](CCCNC(=N)N)C(=O)N[C@@H](CCCCN)C(=O)N[C@@H](CCCNC(=N)N)C(=O)N[C@@H](CC(C)C)C(=O)N[C@@H](CCCCN)C(=O)N[C@@H](CCCNC(=N)N)C(=O)N[C@@H](CC(C)C)C(N)=O` [MU 24] (Ac-LLRKRLKRLLLRKRLKRL-NH2) showed an IC50 of 40 µM.

Turning to `CSCC[C@H](NC(=O)[C@H](CCC(=O)O)NC(=O)[C@H](CCC(=O)O)NC(=O)[C@H](CCSC)NC(=O)[C@H](CCCNC(=N)N)NC(=O)[C@H](C)NC(=O)[C@H](CCCNC(=N)N)NC(=O)[C@H](CC(C)C)NC(=O)[C@H](CCCNC(=N)N)NC(=O)[C@H](CCSC)NC(=O)[C@H](CCC(=O)O)NC(=O)[C@H](CCC(=O)O)NC(=O)[C@H](CCSC)NC(=O)[C@H](CCCNC(=N)N)NC(=O)[C@H](C)NC(=O)[C@H](CCCNC(=N)N)NC(=O)[C@H](CC(C)C)NC(=O)[C@H](CCCNC(=N)N)NC(C)=O)C(N)=O` [GIN 15] (Ac-RLRARMEEMRLRARMEEM-NH2), the half-inhibitory concentration (IC50) was greater than 40 µM and the “efficacy for reducing HSV1 infectivity (in words)” value is recorded as “no, or poor, efficacy”.

Compound `CC(=O)N[C@@H](CC(N)=O)C(=O)N[C@@H](CCCNC(=N)N)C(=O)N[C@@H](CCCCN)C(=O)N[C@@H](CC(N)=O)C(=O)N[C@@H](CCCNC(=N)N)C(=O)N[C@@H](CCCCN)C(=O)N[C@@H](CCCNC(=N)N)C(=O)N[C@@H](CC(N)=O)C(=O)N[C@@H](CC(N)=O)C(=O)N[C@@H](CC(N)=O)C(=O)N[C@@H](CCCNC(=N)N)C(=O)N[C@@H](CCCCN)C(=O)N[C@@H](CC(N)=O)C(=O)N[C@@H](CCCNC(=N)N)C(=O)N[C@@H](CCCCN)C(=O)N[C@@H](CCCNC(=N)N)C(=O)N[C@@H](CC(N)=O)C(=O)N[C@@H](CC(N)=O)C(N)=O` [MU 11] (Ac-NRKNRKRNNNRKNRKRNN-NH2) displayed an IC50 of 27.5 µM.
